Laboratory results from ChEMBL document CHEMBL2163289, “The discovery of N-[5-(4-bromophenyl)-6-[2-[(5-bromo-2-pyrimidinyl)oxy]ethoxy]-4-pyrimidinyl]-N'-propylsulfamide (Macitentan), an orally active, potent dual endothelin receptor antagonist” (J Med Chem, 2012).
One block for each compound: values may come before it. Activity calls are given as the source filed them. The calls are words filed in the database; no cut-off is given here.

Assays:
Rattus norvegicus [1] = test: Antihypertensive activity in telemeterized hypertensive Dahl salt-sensitive rat assessed as reduction in mean arterial blood pressure at 3 mg/kg, po measured over 6 hrs; format: functional, Artery
Rattus norvegicus [2] = test: Effect on heart rate in telemeterized hypertensive Dahl salt-sensitive rat at 3 mg/kg, po
Rattus norvegicus [3] = test: Antihypertensive activity in telemeterized hypertensive Dahl salt-sensitive rat assessed as duration of mean arterial blood pressure lowering action at 3 mg/kg, po; format: functional, Artery
Rattus norvegicus [4] = test: Antihypertensive activity in telemeterized hypertensive Dahl salt-sensitive rat assessed as duration of mean arterial blood pressure lowering action at 100 mg/kg, po; format: functional, Artery
Rattus norvegicus [5] = test: Antihypertensive activity in telemeterized hypertensive Dahl salt-sensitive rat assessed as reduction in mean arterial blood pressure at 100 mg/kg, po measured over 6 hrs; format: functional, Artery
Endothelin-1 receptor = biological target: T1, Endothelin-1 receptor (Homo sapiens, UniProt P25101); test: Displacement of [I125]ET1 from recombinant ETA receptor expressed in CHO cells after 2 hrs by TopCount analysis; format: cell-based
T1 sequence (P25101 whole entry): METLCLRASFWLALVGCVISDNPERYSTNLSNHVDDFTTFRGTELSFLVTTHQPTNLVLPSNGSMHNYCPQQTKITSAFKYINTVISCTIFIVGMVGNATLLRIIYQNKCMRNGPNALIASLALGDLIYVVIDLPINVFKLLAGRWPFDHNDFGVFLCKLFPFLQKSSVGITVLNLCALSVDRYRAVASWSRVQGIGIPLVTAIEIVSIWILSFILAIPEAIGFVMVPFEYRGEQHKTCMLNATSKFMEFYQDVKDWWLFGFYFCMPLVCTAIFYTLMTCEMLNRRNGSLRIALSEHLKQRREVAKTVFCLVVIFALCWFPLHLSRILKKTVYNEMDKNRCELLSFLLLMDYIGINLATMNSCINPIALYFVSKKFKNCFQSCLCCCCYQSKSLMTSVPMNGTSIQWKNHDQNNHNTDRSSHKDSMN

Rattus norvegicus [6] = test: Antihypertensive activity in po dosed telemeterized hypertensive Dahl salt-sensitive rat assessed as reduction in mean arterial blood pressure; details: Artery
[7] = Volume of distribution at steady state in Wistar rat at 1 mg/kg, iv; format: ADME, organism-based; set-up: dose 1 mg/kg, route intravenous; details: in vivo, read-out: Vdss
[8] = Tmax in beagle dog at 10 mg/kg, po; format: ADME, organism-based, Canis lupus familiaris; set-up: dose 10 mg/kg, route oral; details: in vivo
[9] = Oral bioavailability in beagle dog at 10 mg/kg; format: ADME, organism-based, Canis lupus familiaris; details: in vivo
Rattus norvegicus [10] = species on record: Rattus norvegicus; test: Toxicity in rat assessed as inhibition of bile salt transport; format: organism-based; details: in vivo
[11] = Half life in Wistar rat at 1 mg/kg, iv; format: ADME, organism-based; set-up: dose 1 mg/kg, route intravenous; details: in vivo
[12] = Clearance in Wistar rat at 1 mg/kg, iv; format: ADME, organism-based; set-up: dose 1 mg/kg, route intravenous; details: in vivo
[13] = Oral bioavailability in Wistar rat at 10 mg/kg; format: ADME, organism-based; details: in vivo
[14] = Cmax in beagle dog at 10 mg/kg, po; format: ADME, organism-based, Canis lupus familiaris; set-up: dose 10 mg/kg, route oral; details: in vivo
[15] = Volume of distribution at steady state in beagle dog at 1 mg/kg, iv; format: ADME, organism-based, Canis lupus familiaris; set-up: dose 1 mg/kg, route intravenous; details: in vivo, read-out: Vdss
[16] = Cmax in Wistar rat at 10 mg/kg, po; format: ADME, organism-based; set-up: dose 10 mg/kg, route oral; details: in vivo
[17] = Half life in beagle dog at 1 mg/kg, iv; format: ADME, organism-based, Canis lupus familiaris; set-up: dose 1 mg/kg, route intravenous; details: in vivo
Rattus norvegicus [18] = test: Effect on heart rate in telemeterized hypertensive Dahl salt-sensitive rat at 1 to 100 mg/kg, po
[19] = Tmax in Wistar rat at 10 mg/kg, po; format: ADME, organism-based; set-up: dose 10 mg/kg, route oral; details: in vivo
[20] = AUC (0 to infinity) in beagle dog at 10 mg/kg, po; format: ADME, organism-based, Canis lupus familiaris; set-up: time infinity, dose 10 mg/kg, route oral; details: plasma
Rattus norvegicus [21] = test: Antihypertensive activity in telemeterized hypertensive Dahl salt-sensitive rat assessed as reduction in mean arterial blood pressure at 1 mg/kg, po administered QD for 5 days; format: functional, Artery
Rattus norvegicus [22] = species on record: Rattus norvegicus; test: Drug metabolism in Wistar rat assessed as N-[5-(4-Bromophenyl)-6-[2-[(5-bromo-2-pyrimidinyl)oxy]ethoxy]-4-pyrimidinyl]-sulfamide formation; format: ADME, organism-based; details: in vivo
[23] = Clearance in beagle dog at 1 mg/kg, iv; format: ADME, organism-based, Canis lupus familiaris; set-up: dose 1 mg/kg, route intravenous; details: in vivo
[24] = AUC (0 to infinity) in beagle dog at 1 mg/kg, iv; format: ADME, organism-based, Canis lupus familiaris; set-up: dose 1 mg/kg, route intravenous, time infinity; details: plasma
[25] = AUC (0 to infinity) in Wistar rat at 10 mg/kg, po; format: ADME, organism-based; set-up: time infinity, dose 10 mg/kg, route oral; details: plasma
Rattus norvegicus [26] = test: Antihypertensive activity in telemeterized hypertensive Dahl salt-sensitive rat assessed as reduction in mean arterial blood pressure at 1 mg/kg, po administered QD for 5 days measured 48 hrs post last-dose; details: Artery
Canis familiaris = species on record: Canis familiaris; test: Drug metabolism in beagle dog assessed as N-[5-(4-Bromophenyl)-6-[2-[(5-bromo-2-pyrimidinyl)oxy]ethoxy]-4-pyrimidinyl]-sulfamide formation; format: ADME, organism-based, Canis lupus familiaris; details: in vivo
[27] = AUC (0 to infinity) in Wistar rat at 1 mg/kg, iv; format: ADME, organism-based; set-up: time infinity, dose 1 mg/kg, route intravenous; details: plasma
Rattus norvegicus [28] = test: Toxicity in telemeterized hypertensive Dahl salt-sensitive rat assessed as tachyphylaxis at 1 mg/kg, po administered QD for 5 days; format: organism-based; set-up: dose 1 mg/kg, route oral; details: in vivo, 120 h

SMILES: COc1ccccc1Oc1c(NS(=O)(=O)c2ccc(C(C)(C)C)cc2)nc(-c2ncccn2)nc1OCCO [BOSENTAN]
Fall in mean arterial blood pressure (Rattus norvegicus [1]): 7 mmHg
Activity (Rattus norvegicus [2]): inactive
Time (Rattus norvegicus [3]): 15 h
Time (Rattus norvegicus [4]): 72 h
MPE (Rattus norvegicus [5]): 30 mmHg

IC50 (Endothelin-1 receptor): 0.5 nM
Vd [7]: 1.8 L/kg
Tmax [8]: 2 h
bioavailability [9]: 87%
half-life [11]: 306 min
clearance [12]: 6.7 mL/min/kg
bioavailability [13]: 69%
Cmax [14]: 4590 ng/mL
Vd [15]: 0.9 L/kg
Cmax [16]: 1670 ng/mL
half-life [17]: 246 min
Tmax [19]: 6 h
AUC(0-inf) [20]: 27500 ng·h/mL
Drug metabolism (Rattus norvegicus [22]): Active
clearance [23]: 5.4 mL/min/kg
AUC(0-inf) [24]: 3170 ng·h/mL
AUC(0-inf) [25]: 18500 ng·h/mL
Drug metabolism (Canis familiaris): Active
AUC(0-inf) [27]: 2680 ng·h/mL
SMILES: CCCNS(=O)(=O)Nc1ncnc(OCCOc2ncc(Br)cn2)c1-c1ccc(Br)cc1
Activity (Rattus norvegicus [6]): Dose-dependent effect
Fall in mean arterial blood pressure (Rattus norvegicus [1]): 25 mmHg
Activity (Rattus norvegicus [10]): Non-toxic
Time (Rattus norvegicus [3]): 60 h
Activity (Rattus norvegicus [18]): inactive
MPE (Rattus norvegicus [21]): 20 mmHg
Activity (Rattus norvegicus [26]): Active
Activity (Rattus norvegicus [28]): Non-toxic
